Data taken from US7998460B2, “Prevention of deficits in neurogenesis with anti-inflammatory agents” (The Board of Trustees of the Leland Stanford Junior …, priority 2003, dated 2011).

Tests used:
[1] = system: adult hippocampus-derived neural precursor cells; test: In vitro neuronal differentiation (doublecortin) of hippocampal neural progenitor cells, 60 hours; assay type: cell-based, rat; conditions: 60 hours differentiation
Text: Neuroinflammation could inhibit neurogenesis by a variety of mechanisms, including stimulation of the HPA axis with subsequent elevation of gluccocorticoids, alterations in the relationships between progenitor cells and cells of the neuro-vasculature, or direct effects of activated microglia on the precursor cells. To determine the extent to which microglial activation might directly affect neural stem/progenitor cells, microglia were stimulated in vitro with LPS. LPS is a potent activator of microglia and up-regulates the elaboration of pro-inflammatory cytokines, including IL-6 and TNF-α. LPS-stimulated or resting microglia were then co-cultured with normal neural stem cells from the hippocampus under conditions that typically stimulate the differentiation of 30 to 40% of the progenitor cells into immature Dcx-expressing neurons (normalized to a value of 1 in FIG. 2A, control). Neurogenesis in the presence of microglia was assessed as the increase or decrease in Dcx-expressing cells relative to control. Co-culture with activated, but not resting, microglia decreased in vitro neurogenesis to approximately half of control levels (FIG. 2A). LPS added directly to precursor cells had no effect on neurogenesis.
To determine if this effect was due to soluble factors or due to cell-cell contact, hippocampal precursor cells were differentiated in the presence of media pre-conditioned by resting or activated microglia.
Activated microglia produce the potent pro-inflammatory cytokines interleukin-1β (IL-1β), tumor necrosis factor-α (TNF-α), interferon-γ (INF-γ) and interleukin-6 (IL-6). Progenitor cells were allowed to differentiate in the presence of each cytokine and the relative expression of Dcx was scored after 60 hours. […] Addition of neutralizing anti-IL-6 antibody to CM from activated microglia was able to fully restore in vitro neurogenesis (FIG. 2A). This implicated IL-6 as a key inhibitor of neurogenesis in microglial CM. […] In contrast to neurogenesis, gliogenesis was unaffected by IL-6 exposure as indicated by the lack of change in the number of cells expressing the astrocyte (glial fibrillary acidic protein, GFAP) or early oligodendrocyte (NG2) markers relative to control cultures (FIG. 2E). The hippocampal precursors used in this study do express the IL-6 receptor, as confirmed by RT-PCR (FIG. 5).
Progenitor Cell Culture Adult hippocampus-derived neural precursor cells were isolated from adult rat hippocampus and cultured as previously described. Briefly, adult female Fisher-344 rats were deeply anesthetized with sodium pentobarbital and were dissected immediately. Hippocampi were enzymatically dissociated with papain (2.5 U/ml; Worthington, Freehold, N.J.)-dispase II (1 U/ml; Boehringer Mannheim, Indianapolis, Ind.)-DNase I (250 U/ml, Worthington) solution. Digested tissue was then washed with DMEM-10% fetal calf serum (FCS) and subsequently mixed with PBS-equilibrated Percoll solution to a final concentration of 35% Percoll. The Percoll solution was made by mixing nine parts of Percoll (Amersham Pharmacia Biotech, Uppsala, Sweden) with one part of 10× PBS. The cell suspension was then fractionated by centrifugation for 10 min at 1000×gravity. Floating myelin and tissue debris were discarded and the cell pellet re-suspended in 65% Percoll solution and fractionated again by centrifugation for 10 min at 1000×g. The floating neural precursors were collected, washed free of Percoll, and plated onto poly-L-ornithine/laminin-coated dishes in DMEM/F12 (1:1) containing 10% FCS medium for 24 hrs; then medium was replaced with serum-free growth medium consisting of DMEM/F12 (1:1) supplemented with N2 supplement (Life Technologies, Gaithersburg, Md.) and 20 ng/ml of human recombinant FGF-2 (Peprotech, Rocky Hill, N.J.). Cell lines were labeled via infection with replication deficient GFP-expressing recombinant retrovirus LZRS-CAMut4GFP. […]

[2] = Sickness behavior after LPS in rats; assay type: in vivo, rat; conditions: LPS 1 mg/Kg i.p. one time
Protocol: LPS exposure. Bacterial lipopolysaccharide (LPS, Sigma, St Louis, Mo.) was administered in sterile saline by intraperitoneal injection at a dose of 1 mg/Kg one time. This caused mild sickness behavior (decreased grooming, decreased locomotor activity, increased piloerection) for approximately 2 days, resolving by the 3rd day. The dose of LPS chosen causes mild sickness behavior in rats that resolves within 1-2 days; the dose of LPS used to induce endotoxic shock is 10-fold higher than that used in the present study.

## lipopolysaccharide [LPS]
[1]
  effect on in vitro neurogenesis (Dcx-expressing cells relative to control): no effect
[2]
  duration of mild sickness behavior: approximately 2 days
